Source: patent publication US20150017667A1, “MEANS AND METHODS FOR ASSESSING LIVER DISORDERS” (BASF SE, priority 2012, published 2015)
Structures can show the parent of a compound that is named as a salt. Marks after values point to notes of the source that are not given here.

Tests used:
female rats = assay: 28-day repeated dose oral toxicity study (OECD 407) with GC-MS/LC-MS plasma metabolite profiling, female rats
male rats = assay: 28-day repeated dose oral toxicity study (OECD 407) with GC-MS/LC-MS plasma metabolite profiling, male rats; assay type: in vivo, rat; settings: plasma
Description: Drinking water was also offered ad libitum.
The samples were centrifuged for generation of plasma.

CNC(=O)/C(=N/OC)c1ccccc1COc1cc(C)ccc1C [Dimoxystrobin, (E)-2-(methoxyimino)-N-methyl-2-[alpha-(2,5-xylyloxy)-o-tolyl]acetamide]
3-O-Methylsphingosine (d18:1), ratio versus control (female rats; day 7): 2.18* | 5-O-Methylsphingosine (d18:1), ratio versus control (female rats; day 7): 1.94* | 14-Methylhexadecanoic acid, ratio versus control (female rats; day 7): 1.27 | Behenic acid (C22:0), ratio versus control (female rats; day 7): 2.03* | Cholesterol, ratio versus control (female rats; day 7): 1.66* | Coenzyme Q9, ratio versus control (female rats; day 7): 1.51* | DAG (C18:1,C18:2), ratio versus control (female rats; day 7): 2.28* | Eicosanoic acid (C20:0), ratio versus control (female rats; day 7): 2.23* | Glucose, ratio versus control (female rats; day 7): 1.14 | Glycerol phosphate, lipid fraction, ratio versus control (female rats; day 7): 1.68* | Glycerol, lipid fraction, ratio versus control (female rats; day 7): 2.08* | Glycerol-3-phosphate, polar fraction, ratio versus control (female rats; day 7): 1.38 | Heptadecanoic acid (C17:0), ratio versus control (female rats; day 7): 1.81* | Linoleic acid (C18:cis[9,12]2), ratio versus control (female rats; day 7): 2.12* | Nervonic acid (C24:cis[15]1), ratio versus control (female rats; day 7): 1.83* | Palmitic acid (C16:0), ratio versus control (female rats; day 7): 1.99* | Phosphatidylcholine (C16:0,C20:5), ratio versus control (female rats; day 7): 1.33* | TAG (C16:0,C18:1,C18:3), ratio versus control (female rats; day 7): 4.17* | TAG (C16:0,C18:2), ratio versus control (female rats; day 7): 3.49* | TAG (C18:1,C18:2), ratio versus control (female rats; day 7): 4.18* | TAG (C18:2,C18:2), ratio versus control (female rats; day 7): 3.69* | TAG (C18:2,C18:3), ratio versus control (female rats; day 7): 3.61* | TAG No 01, ratio versus control (female rats; day 7): 2.62* | TAG No 05, ratio versus control (female rats; day 7): 2.89* | TAG No 07, ratio versus control (female rats; day 7): 2.5* | dihomo-gamma-Linolenic acid (C20:cis[8,11,14]3), ratio versus control (female rats; day 7): 2.95* | erythro-Sphingosine, ratio versus control (female rats; day 7): 1.86* | 3-O-Methylsphingosine (d18:1), ratio versus control (female rats; day 14): 1.78* | 5-O-Methylsphingosine (d18:1), ratio versus control (female rats; day 14): 1.94* | 14-Methylhexadecanoic acid, ratio versus control (female rats; day 14): 1.15 | Behenic acid (C22:0), ratio versus control (female rats; day 14): 2.23* | Cholesterol, ratio versus control (female rats; day 14): 1.7* | Coenzyme Q9, ratio versus control (female rats; day 14): 1.91 | DAG (C18:1,C18:2), ratio versus control (female rats; day 14): 2.99* | Eicosanoic acid (C20:0), ratio versus control (female rats; day 14): 2.54* | Glucose, ratio versus control (female rats; day 14): 1.17 | Glycerol phosphate, lipid fraction, ratio versus control (female rats; day 14): 1.69* | Glycerol, lipid fraction, ratio versus control (female rats; day 14): 2.44* | Glycerol-3-phosphate, polar fraction, ratio versus control (female rats; day 14): 1.32* | Heptadecanoic acid (C17:0), ratio versus control (female rats; day 14): 1.73* | Linoleic acid (C18:cis[9,12]2), ratio versus control (female rats; day 14): 2.2* | Nervonic acid (C24:cis[15]1), ratio versus control (female rats; day 14): 1.54* | Palmitic acid (C16:0), ratio versus control (female rats; day 14): 1.89* | Phosphatidylcholine (C16:0,C20:5), ratio versus control (female rats; day 14): 1.54* | TAG (C16:0,C18:1,C18:3), ratio versus control (female rats; day 14): 5.45* | TAG (C16:0,C18:2), ratio versus control (female rats; day 14): 4.36* | TAG (C18:1,C18:2), ratio versus control (female rats; day 14): 3.37* | TAG (C18:2,C18:2), ratio versus control (female rats; day 14): 3.82* | TAG (C18:2,C18:3), ratio versus control (female rats; day 14): 2.41* | TAG No 01, ratio versus control (female rats; day 14): 1.93* | TAG No 05, ratio versus control (female rats; day 14): 3.02* | TAG No 07, ratio versus control (female rats; day 14): 3.54* | dihomo-gamma-Linolenic acid (C20:cis[8,11,14]3), ratio versus control (female rats; day 14): 2.58* | erythro-Sphingosine, ratio versus control (female rats; day 14): 1.78* | 3-O-Methylsphingosine (d18:1), ratio versus control (female rats; day 28): 1.52* | 5-O-Methylsphingosine (d18:1), ratio versus control (female rats; day 28): 1.59* | 14-Methylhexadecanoic acid, ratio versus control (female rats; day 28): 1.31* | Behenic acid (C22:0), ratio versus control (female rats; day 28): 2.03* | Cholesterol, ratio versus control (female rats; day 28): 1.75* | Coenzyme Q9, ratio versus control (female rats; day 28): 1.78* | DAG (C18:1,C18:2), ratio versus control (female rats; day 28): 2.85* | Eicosanoic acid (C20:0), ratio versus control (female rats; day 28): 2.08* | Glucose, ratio versus control (female rats; day 28): 1.15 | Glycerol phosphate, lipid fraction, ratio versus control (female rats; day 28): 1.98* | Glycerol, lipid fraction, ratio versus control (female rats; day 28): 2.58* | Glycerol-3-phosphate, polar fraction, ratio versus control (female rats; day 28): 1.79 | Heptadecanoic acid (C17:0), ratio versus control (female rats; day 28): 2.84* | Linoleic acid (C18:cis[9,12]2), ratio versus control (female rats; day 28): 2.2* | Nervonic acid (C24:cis[15]1), ratio versus control (female rats; day 28): 1.38* | Palmitic acid (C16:0), ratio versus control (female rats; day 28): 2.03* | Phosphatidylcholine (C16:0,C20:5), ratio versus control (female rats; day 28): 1.15* | TAG (C16:0,C18:1,C18:3), ratio versus control (female rats; day 28): 3.93* | TAG (C16:0,C18:2), ratio versus control (female rats; day 28): 3.68* | TAG (C18:1,C18:2), ratio versus control (female rats; day 28): 4.49* | TAG (C18:2,C18:2), ratio versus control (female rats; day 28): 5.11* | TAG (C18:2,C18:3), ratio versus control (female rats; day 28): 3.9* | TAG No 01, ratio versus control (female rats; day 28): 2.61* | TAG No 05, ratio versus control (female rats; day 28): 4.39* | TAG No 07, ratio versus control (female rats; day 28): 4.13* | dihomo-gamma-Linolenic acid (C20:cis[8,11,14]3), ratio versus control (female rats; day 28): 3.54* | erythro-Sphingosine, ratio versus control (female rats; day 28): 1.46*

CN(CCOc1ccc(CC2SC(=O)NC2=O)cc1)c1ccccn1 (stereo not drawn) [Rosiglitazone maleate]
Alanine, ratio versus control (male rats; day 7): 0.78* | Citrulline, ratio versus control (male rats; day 7): 0.88* | Isoleucine, ratio versus control (male rats; day 7): 0.7* | Leucine, ratio versus control (male rats; day 7): 0.74* | Lysine, ratio versus control (male rats; day 7): 0.78* | Ornithine, ratio versus control (male rats; day 7): 0.85* | Phenylalanine, ratio versus control (male rats; day 7): 0.85* | Phosphate (inorganic and organic phosphates), ratio versus control (male rats; day 7): 0.76* | Phosphatidylcholine (C16:0,C16:0), ratio versus control (male rats; day 7): 1.14* | Proline, ratio versus control (male rats; day 7): 0.89* | Valine, ratio versus control (male rats; day 7): 0.74* | Phosphatidylcholine (C16:0,C20:5), ratio versus control (male rats; day 7 (Table 4a)): 1.07* | Docosahexaenoic acid (C22:cis[4,7,10,13,16,19]6), ratio versus control (male rats; day 7 (Table 4b)): 0.57* | Phosphatidylcholine (C18:0,C22:6), ratio versus control (male rats; day 7 (Table 4b)): 0.87* | Threonine, ratio versus control (male rats; day 7 (Table 4b)): 0.74* | Alanine, ratio versus control (male rats; day 14): 0.83* | Citrulline, ratio versus control (male rats; day 14): 0.79 | Isoleucine, ratio versus control (male rats; day 14): 0.72* | Leucine, ratio versus control (male rats; day 14): 0.66* | Lysine, ratio versus control (male rats; day 14): 0.77* | Ornithine, ratio versus control (male rats; day 14): 0.86* | Phenylalanine, ratio versus control (male rats; day 14): 0.84* | Phosphate (inorganic and organic phosphates), ratio versus control (male rats; day 14): 0.66* | Phosphatidylcholine (C16:0,C16:0), ratio versus control (male rats; day 14): 1.22* | Proline, ratio versus control (male rats; day 14): 0.88* | Valine, ratio versus control (male rats; day 14): 0.74* | Phosphatidylcholine (C16:0,C20:5), ratio versus control (male rats; day 14 (Table 4a)): 1.11* | Docosahexaenoic acid (C22:cis[4,7,10,13,16,19]6), ratio versus control (male rats; day 14 (Table 4b)): 0.66* | Phosphatidylcholine (C18:0,C22:6), ratio versus control (male rats; day 14 (Table 4b)): 0.9* | Threonine, ratio versus control (male rats; day 14 (Table 4b)): 0.74* | Alanine, ratio versus control (male rats; day 28): 0.88* | Citrulline, ratio versus control (male rats; day 28): 0.86* | Isoleucine, ratio versus control (male rats; day 28): 0.78* | Leucine, ratio versus control (male rats; day 28): 0.78* | Lysine, ratio versus control (male rats; day 28): 0.86* | Ornithine, ratio versus control (male rats; day 28): 0.78* | Phenylalanine, ratio versus control (male rats; day 28): 0.81* | Phosphate (inorganic and organic phosphates), ratio versus control (male rats; day 28): 0.69* | Phosphatidylcholine (C16:0,C16:0), ratio versus control (male rats; day 28): 1.07 | Proline, ratio versus control (male rats; day 28): 0.93* | Valine, ratio versus control (male rats; day 28): 0.84* | Phosphatidylcholine (C16:0,C20:5), ratio versus control (male rats; day 28 (Table 4a)): 1.06 | Docosahexaenoic acid (C22:cis[4,7,10,13,16,19]6), ratio versus control (male rats; day 28 (Table 4b)): 0.83* | Phosphatidylcholine (C18:0,C22:6), ratio versus control (male rats; day 28 (Table 4b)): 0.84* | Threonine, ratio versus control (male rats; day 28 (Table 4b)): 0.87*
